The source made the active and inactive calls. The rule behind the calls is not given here.
What was measured:
Mus musculus [1] = test: In vivo inhibition of tankyrase-mediated axin2 gene expression in tumor of athymic nude mouse xenografted with human DLD1 cells at 200 mg/kg, po bid for 3 days by STF assay; type: functional, organism-based; set-up: dose 200 mg/kg; conditions: DLD-1
Mus musculus [2] = test: In vivo inhibition of tankyrase in tumor of athymic nude mouse xenografted with human DLD1 cells assessed as axin accumulation at 200 mg/kg, po bid for 3 days; type: functional, organism-based; set-up: dose 200 mg/kg; conditions: DLD-1
[3] = Terminal plasma concentration in athymic nude mouse xenografted with human DLD1 cells at 200 mg/kg, po bid for 3 days; type: ADME, organism-based, DLD-1; set-up: dose 200 mg/kg, route oral; conditions: read-out: Cp(T)
Mus musculus [4] = test: In vivo inhibition of tankyrase-mediated TCF7 gene expression in tumor of athymic nude mouse xenografted with human DLD1 cells at 200 mg/kg, po bid for 3 days by STF assay; type: functional, organism-based; set-up: dose 200 mg/kg; conditions: DLD-1
[5] = Intrinsic clearance in human liver microsomes; type: ADME; conditions: read-out: CLH
Mu-type opioid receptor = Mu-type opioid receptor (Homo sapiens, UniProt P35372); test: Binding affinity to mu opioid receptor (unknown origin)
Sequence of Mu-type opioid receptor (P35372 whole entry): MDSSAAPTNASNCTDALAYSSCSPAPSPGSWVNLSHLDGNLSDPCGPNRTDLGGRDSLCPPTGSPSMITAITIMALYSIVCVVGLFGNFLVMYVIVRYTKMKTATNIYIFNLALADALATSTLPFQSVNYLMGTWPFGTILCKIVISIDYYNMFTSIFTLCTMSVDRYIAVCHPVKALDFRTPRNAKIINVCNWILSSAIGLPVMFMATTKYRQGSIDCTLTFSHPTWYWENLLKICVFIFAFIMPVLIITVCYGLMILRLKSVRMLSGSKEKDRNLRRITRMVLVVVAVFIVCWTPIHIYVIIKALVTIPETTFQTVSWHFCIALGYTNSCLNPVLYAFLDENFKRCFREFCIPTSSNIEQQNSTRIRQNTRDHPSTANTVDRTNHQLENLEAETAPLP

Substance-P receptor = Substance-P receptor (Homo sapiens, UniProt P25103); test: Binding affinity to NK1 receptor (unknown origin)
Sequence of Substance-P receptor (P25103 whole entry): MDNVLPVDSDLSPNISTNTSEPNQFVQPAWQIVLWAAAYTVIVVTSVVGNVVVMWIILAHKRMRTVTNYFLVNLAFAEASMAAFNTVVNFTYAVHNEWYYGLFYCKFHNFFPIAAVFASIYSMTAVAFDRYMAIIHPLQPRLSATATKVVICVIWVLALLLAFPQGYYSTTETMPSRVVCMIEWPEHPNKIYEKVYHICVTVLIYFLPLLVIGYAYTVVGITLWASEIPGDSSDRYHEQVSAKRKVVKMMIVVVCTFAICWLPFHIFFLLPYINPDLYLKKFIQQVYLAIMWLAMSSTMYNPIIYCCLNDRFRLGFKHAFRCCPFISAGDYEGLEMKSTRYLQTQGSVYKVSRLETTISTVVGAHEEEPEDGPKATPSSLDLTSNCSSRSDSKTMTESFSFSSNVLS

[6] = molecular target: Muscarinic acetylcholine receptor M1 (Homo sapiens, UniProt P11229); test: Binding affinity to muscarinic M1 receptor (unknown origin)
Sequence of Muscarinic acetylcholine receptor M1 (P11229 whole entry): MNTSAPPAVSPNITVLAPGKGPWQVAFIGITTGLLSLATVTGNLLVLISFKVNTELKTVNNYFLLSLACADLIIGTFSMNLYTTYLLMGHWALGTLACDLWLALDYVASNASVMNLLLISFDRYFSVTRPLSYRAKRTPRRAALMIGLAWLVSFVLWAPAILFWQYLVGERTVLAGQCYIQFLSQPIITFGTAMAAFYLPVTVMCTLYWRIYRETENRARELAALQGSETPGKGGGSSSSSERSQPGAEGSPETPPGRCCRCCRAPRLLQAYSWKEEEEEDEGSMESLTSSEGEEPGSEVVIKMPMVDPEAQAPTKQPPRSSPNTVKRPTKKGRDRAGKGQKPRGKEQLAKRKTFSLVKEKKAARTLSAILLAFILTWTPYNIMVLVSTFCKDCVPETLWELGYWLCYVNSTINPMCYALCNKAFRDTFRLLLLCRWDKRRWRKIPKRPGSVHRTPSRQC

Bile salt export pump = Bile salt export pump (Homo sapiens, UniProt O95342); test: Inhibition of BSEP (unknown origin)
Sequence of Bile salt export pump (O95342 whole entry): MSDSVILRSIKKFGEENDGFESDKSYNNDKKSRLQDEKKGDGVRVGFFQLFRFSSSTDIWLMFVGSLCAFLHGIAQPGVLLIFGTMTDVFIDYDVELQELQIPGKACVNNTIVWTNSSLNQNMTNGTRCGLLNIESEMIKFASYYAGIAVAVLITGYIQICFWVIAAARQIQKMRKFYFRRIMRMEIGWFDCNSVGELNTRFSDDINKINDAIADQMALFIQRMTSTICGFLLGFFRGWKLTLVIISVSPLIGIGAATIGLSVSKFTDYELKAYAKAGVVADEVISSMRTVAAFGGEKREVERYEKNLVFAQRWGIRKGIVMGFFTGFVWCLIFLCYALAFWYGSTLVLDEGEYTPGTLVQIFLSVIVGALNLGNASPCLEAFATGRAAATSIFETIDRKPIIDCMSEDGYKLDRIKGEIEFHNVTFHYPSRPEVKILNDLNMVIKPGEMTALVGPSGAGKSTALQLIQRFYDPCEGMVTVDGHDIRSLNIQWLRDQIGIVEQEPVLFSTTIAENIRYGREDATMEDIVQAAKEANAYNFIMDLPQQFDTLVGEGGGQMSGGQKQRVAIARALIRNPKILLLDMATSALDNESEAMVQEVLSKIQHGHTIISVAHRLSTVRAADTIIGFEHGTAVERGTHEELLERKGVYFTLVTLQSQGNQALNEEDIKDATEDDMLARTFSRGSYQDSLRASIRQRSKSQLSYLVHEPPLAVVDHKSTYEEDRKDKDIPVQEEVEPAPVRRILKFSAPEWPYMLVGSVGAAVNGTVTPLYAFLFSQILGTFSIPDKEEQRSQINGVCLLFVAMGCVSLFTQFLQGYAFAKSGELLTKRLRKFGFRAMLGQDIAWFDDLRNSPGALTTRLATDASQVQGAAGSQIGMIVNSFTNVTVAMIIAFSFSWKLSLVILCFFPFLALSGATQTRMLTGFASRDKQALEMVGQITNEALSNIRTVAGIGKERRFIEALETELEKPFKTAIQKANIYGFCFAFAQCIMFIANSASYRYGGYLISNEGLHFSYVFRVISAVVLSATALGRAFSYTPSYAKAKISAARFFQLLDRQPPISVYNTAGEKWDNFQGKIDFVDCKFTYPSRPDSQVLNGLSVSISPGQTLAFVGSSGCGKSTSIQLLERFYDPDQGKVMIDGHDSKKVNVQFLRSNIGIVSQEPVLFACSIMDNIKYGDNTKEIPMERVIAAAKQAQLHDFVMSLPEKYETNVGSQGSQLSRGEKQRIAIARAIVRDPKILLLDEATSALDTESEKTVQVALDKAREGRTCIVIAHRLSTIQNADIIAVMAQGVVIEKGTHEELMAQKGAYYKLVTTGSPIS

[7] = molecular target: Voltage-gated inwardly rectifying potassium channel KCNH2 (Homo sapiens, UniProt Q12809); test: Inhibition of human ERG
Sequence of Voltage-gated inwardly rectifying potassium channel KCNH2 (Q12809 whole entry): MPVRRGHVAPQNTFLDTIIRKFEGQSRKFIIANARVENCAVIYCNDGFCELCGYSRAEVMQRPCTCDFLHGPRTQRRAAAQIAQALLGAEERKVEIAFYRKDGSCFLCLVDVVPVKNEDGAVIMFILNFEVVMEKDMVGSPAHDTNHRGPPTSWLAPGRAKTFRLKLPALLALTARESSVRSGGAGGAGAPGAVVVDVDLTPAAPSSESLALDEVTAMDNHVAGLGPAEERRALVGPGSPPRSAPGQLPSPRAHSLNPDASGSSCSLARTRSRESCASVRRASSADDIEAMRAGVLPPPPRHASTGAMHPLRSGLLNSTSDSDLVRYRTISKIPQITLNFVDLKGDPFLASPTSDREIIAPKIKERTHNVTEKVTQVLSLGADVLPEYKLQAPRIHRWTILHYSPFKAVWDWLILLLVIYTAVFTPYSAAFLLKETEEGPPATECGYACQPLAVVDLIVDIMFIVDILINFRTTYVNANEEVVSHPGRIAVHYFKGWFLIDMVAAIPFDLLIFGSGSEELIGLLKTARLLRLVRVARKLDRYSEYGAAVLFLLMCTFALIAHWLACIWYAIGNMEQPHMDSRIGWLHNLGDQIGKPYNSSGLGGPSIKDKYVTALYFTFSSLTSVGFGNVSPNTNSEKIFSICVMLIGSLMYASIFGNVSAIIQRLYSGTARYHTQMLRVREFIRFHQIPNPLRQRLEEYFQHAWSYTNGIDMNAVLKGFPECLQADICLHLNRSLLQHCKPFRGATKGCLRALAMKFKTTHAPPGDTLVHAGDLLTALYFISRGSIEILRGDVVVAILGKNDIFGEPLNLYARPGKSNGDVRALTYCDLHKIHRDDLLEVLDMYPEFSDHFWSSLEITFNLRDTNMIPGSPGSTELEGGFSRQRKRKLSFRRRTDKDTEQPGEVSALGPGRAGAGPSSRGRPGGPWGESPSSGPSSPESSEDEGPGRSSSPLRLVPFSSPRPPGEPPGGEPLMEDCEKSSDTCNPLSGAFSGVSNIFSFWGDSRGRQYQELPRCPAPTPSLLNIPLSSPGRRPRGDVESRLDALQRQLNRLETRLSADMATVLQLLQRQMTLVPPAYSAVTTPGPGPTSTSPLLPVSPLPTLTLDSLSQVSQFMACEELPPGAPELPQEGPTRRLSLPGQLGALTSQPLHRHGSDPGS

[8] = molecular target: Alpha-1A adrenergic receptor (Homo sapiens, UniProt P35348); test: Binding affinity to adrenergic alpha1A receptor (unknown origin)
Sequence of Alpha-1A adrenergic receptor (P35348 whole entry): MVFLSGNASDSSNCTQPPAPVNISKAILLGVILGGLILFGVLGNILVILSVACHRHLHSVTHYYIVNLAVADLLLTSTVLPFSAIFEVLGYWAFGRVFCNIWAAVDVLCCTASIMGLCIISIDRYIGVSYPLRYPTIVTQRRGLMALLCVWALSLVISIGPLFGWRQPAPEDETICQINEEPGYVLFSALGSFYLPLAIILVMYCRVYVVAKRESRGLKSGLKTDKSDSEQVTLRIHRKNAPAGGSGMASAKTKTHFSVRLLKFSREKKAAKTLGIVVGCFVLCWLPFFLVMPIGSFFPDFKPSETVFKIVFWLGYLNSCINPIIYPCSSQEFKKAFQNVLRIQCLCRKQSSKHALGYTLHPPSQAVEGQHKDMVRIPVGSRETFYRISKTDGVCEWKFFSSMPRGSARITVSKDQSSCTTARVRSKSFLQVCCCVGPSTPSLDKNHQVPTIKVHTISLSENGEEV

Mus musculus [9] = test: In vivo inhibition of tankyrase-mediated Wnt gene transcription in tumor of athymic nude mouse xenografted with human DLD1 cells at 50 mg/kg, po bid for 3 days by STF assay; type: functional, organism-based; set-up: dose 50 mg/kg; conditions: DLD-1
[10] = Terminal plasma concentration in athymic nude mouse xenografted with human DLD1 cells at 50 mg/kg, po bid for 3 days; type: ADME, organism-based, DLD-1; set-up: dose 50 mg/kg, route oral; conditions: read-out: Cp(T)
[11] = Toxicity in po dosed athymic nude mouse administered bid for 8 days; type: organism-based; conditions: in vivo
[12] = molecular target: Somatostatin receptor type 4 (Homo sapiens, UniProt P31391); test: Binding affinity to SST4 receptor (unknown origin)
Sequence of Somatostatin receptor type 4 (P31391 whole entry): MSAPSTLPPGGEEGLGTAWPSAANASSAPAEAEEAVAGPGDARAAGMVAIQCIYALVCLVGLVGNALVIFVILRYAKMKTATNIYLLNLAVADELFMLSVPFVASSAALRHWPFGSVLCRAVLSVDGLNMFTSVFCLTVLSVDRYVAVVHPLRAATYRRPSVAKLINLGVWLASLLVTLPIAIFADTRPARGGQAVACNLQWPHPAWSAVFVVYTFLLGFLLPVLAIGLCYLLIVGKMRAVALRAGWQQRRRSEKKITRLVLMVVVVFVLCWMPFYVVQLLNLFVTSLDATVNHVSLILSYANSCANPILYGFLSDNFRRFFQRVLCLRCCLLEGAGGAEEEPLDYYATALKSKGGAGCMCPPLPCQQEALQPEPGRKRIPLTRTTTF

Row | Structure (SMILES) | inhibition (Mus musculus [1]) | inhibition (Mus musculus [2]) | concentration at 72 h [3] [µM] | inhibition (Mus musculus [4]) | microsomal CLint [5] [µL/min/mg] | IC50 (Mu-type opioid receptor) [µM] | IC50 (Substance-P receptor) [µM] | IC50 [6] [µM] | IC50 (Bile salt export pump) [µM] | IC50 [7] [µM] | IC50 [8] [µM] | inhibition (Mus musculus [9]) | concentration at 72 h [10] [µM] | MTD at 192 h [11] [mg/kg] | IC50 [12] [µM]
1 | CC1(C)OC(=O)N(c2ccc(-c3cnc(N)c(-c4ncccn4)c3)cc2)[C@H]1c1ccccc1 | Active | Active | 22.1 | Active | 33 | – | – | – | – | – | – | – | – | – | –
2 | CC1(C)OC(=O)N([C@H]2CC[C@H](c3cnc(N)c(-c4ncccn4)c3)CC2)[C@H]1c1ccccc1 | – | – | – | – | – | > 48.5 | > 48.5 | > 48.5 | 11 | 10.9 | > 48.5 | Active | 0.12 | 50 | > 48.5

— ChEMBL document CHEMBL3098003, “Structure-based design of 2-aminopyridine oxazolidinones as potent and selective tankyrase inhibitors” (ACS Med Chem Lett, 2013)
